Columns and labels:
potted vines = experiment: Tolerance by potted vines in greenhouse; spray application; type: in vivo; details: for Potted vines - leaf damage: 4.0 and 8.0 kg/ha
Protocol: Plastic flowerpots having a volume of 300 cm^3 were filled with a sandy loam and the test plants placed therein (either as seed, as vegetatively reproduced species, or as potted plants, e.g., vines). For preemergence treatment, the active ingredients were suspended or emulsified in water as vehicle and sprayed onto the surface of the soil immediately after sowing by means of finely distributing nozzles. The potted vines were treated by spraying them with the correspondingly diluted liquor. For postemergence treatment, the agents were, as stated above, sprayed in water onto the leaves of the test plants, some liquor also falling onto the soil. In some special cases, solid active ingredients were first dissolved in dimethylformamide and then applied in a total liquor amount of 400 liters of water per hectare. For the postemergence treatment, the plants were first grown to a height of from 3 to 10 cm before being treated. With grasses, the first growth was cut, and the new growth treated 2 to 3 days after cutting. The temperature requirements of the plants were taken into account by placing them in cooler or warmer sections of the greenhouse. The experiments were run for from 4 to 6 weeks, during which time the plants were tended and their reaction to the various treatments was assessed.
The application rates are given in kg/ha of active ingredient, regardless of the method of application and the amount of water used.
A 0 to 100 scale was used for the evaluation, 0 denoting normal emergence or no damage (or no inhibition), and 100 denoting non-emergence or complete destruction of the plants. A distinction should be made in the influence on growth between desired changes without any appreciable disadvantageous phytotoxic effects (e.g., purely growth-regulating effects) and those of a phytotoxic herbicical character.

spring rye [1] = experiment: Growth height of spring rye, soil treatment, Example 11; type: in vivo, spring rye ("Petkuser" variety)
Protocol: (§1) The test plants--spring wheat ("Opal" variety), spring barley ("Union" variety) and spring rye ("Petkuser" variety)--were grown under greenhouse conditions in plastic dishes 11.5 cm in diameter, in a peat substrate provided with sufficient nutrients.
(§2) The soil (preemergence) treatment was effected after sowing by pouring aqueous formulations of the active ingredients, at four application rates, onto the surface of the substrate.
(§3) The shortening effect caused by the compounds was shown by measurements of the height of the plants at the end of the experiment.
(§4) The prior art compound N,N,N-trimethyl-N-β-chloroethylammonium chloride (CCC, German Printed Application DAS No. 1,294,734) was used for comparison purposes.

spring wheat [2] = experiment: Growth height of spring wheat, soil (preemergence) treatment, Example 9; type: in vivo, spring wheat ("Opal" variety); details: 30 days
Protocol: (§5) Spring wheat of the "Opal" variety and spring barley of the "Union" variety were grown in the winter half of the year under greenhouse conditions in plastic dishes 11.5 cm in diameter, in a peat substrate provided with sufficient nutrients.
(§6) The reductions in growth height caused by the treatment were determined by measuring the height of the plants at the end of the experiment after 30 days' growth, and comparing it with that of untreated plants.

spring barley [3] = experiment: Growth height of spring barley, soil treatment, Example 11; type: in vivo, spring barley ("Union" variety)
Protocol: as §1, §2, §3, §4

spring rye [4] = experiment: Growth height of spring rye, leaf treatment, Example 11; type: in vivo, spring rye ("Petkuser" variety)
Protocol: as §1
(§7) Leaf treatment was effected by spraying the plants at a growth height of 11 cm with aqueous formulations of the active ingredients, at three application rates.
as §3, §4

spring wheat [5] = experiment: Growth height of spring wheat, leaf treatment, Example 11; type: in vivo, spring wheat ("Opal" variety)
Protocol: as §1, §7, §3, §4

spring barley [6] = experiment: Growth height of spring barley, leaf treatment, Example 11; type: in vivo, spring barley ("Union" variety)
Protocol: as §1, §7, §3, §4

spring barley [7] = experiment: Growth height of spring barley, soil (preemergence) treatment, Example 9; type: in vivo, spring barley ("Union" variety); details: 30 days
Protocol: as §5, §6

spring barley [8] = experiment: Growth height of spring barley, leaf treatment, Example 10; type: in vivo, spring barley ("Union" variety)
Protocol: (§8) Spring wheat ("Opal" variety) and spring barley ("Union" variety) were grown under greenhouse conditions in plastic dishes 11.5 cm in diameter, in a peat substrate provided with sufficient nutrients. For the soil (preemergence) treatment, the active ingredients were poured, at two application rates, as aqueous formulations onto the surface of the substrate after sowing.
(§9) Leaf treatment was effected by spraying the plants at a growth height of 10 cm with aqueous formulations of the active ingredients at two application rates.
(§10) The plant height was measured at the end of the experiment. The figures obtained show the shortening effect of the active ingredients under investigation. The prior art compound β-chloroethylphosphonic acid (Ethephon, German Printed Application DAS No. 1,667,968) was used for comparison purposes.

spring barley [9] = experiment: Growth height of spring barley, soil treatment, Example 10; type: in vivo, spring barley ("Union" variety)
Protocol: as §8, §10

spring wheat [10] = experiment: Growth height of spring wheat, soil treatment, Example 10; type: in vivo, spring wheat ("Opal" variety)
Protocol: as §8, §10

spring wheat [11] = experiment: Growth height of spring wheat, leaf treatment, Example 10; type: in vivo, spring wheat ("Opal" variety)
Protocol: as §8, §9, §10

## CCNc1nc(Cl)nc(NCC)n1
Potted vines
  Potted vines - leaf damage: chlorotic yellow- ing, necroses
Potted vines; 4.0 kg/ha
  Change in shoot growth: 17.3 cm
Potted vines; 8.0 kg/ha
  Change in shoot growth: 10.3 cm

## N#Cc1c(Cl)cccc1Cl
Potted vines
  Potted vines - leaf damage: slight chlorosis
Potted vines; 4.0 kg/ha
  Change in shoot growth: 15.3 cm
Potted vines; 8.0 kg/ha
  Change in shoot growth: 15.7 cm

## C[N+](C)(C)CCCl.[Cl-] [CCC, N,N,N-trimethyl-N-β-chloroethylammonium chloride, reference compound]
Spring rye [1]; 0.75 kg/ha
  Plant height: 31.5 cm
  Plant height, % of untreated control: 97.5%
Spring rye [1]; 1.50 kg/ha
  Plant height: 30.5 cm
  Plant height, % of untreated control: 94.4%
Spring rye [1]; 3.00 kg/ha
  Plant height: 30.0 cm
  Plant height, % of untreated control: 92.9%
Spring rye [1]; 6.00 kg/ha
  Plant height: 28.5 cm
  Plant height, % of untreated control: 88.2%
Spring wheat [2]; 3 kg/ha
  Plant height: 21.5 cm
  Plant height, % of untreated control: 71.7%
Spring wheat [2]; 12 kg/ha
  Plant height: 19.5 cm
  Plant height, % of untreated control: 65.0%
Spring barley [3]; 0.75 kg/ha
  Plant height: 29.5 cm
  Plant height, % of untreated control: 89.9%
Spring barley [3]; 1.50 kg/ha
  Plant height: 29.5 cm
  Plant height, % of untreated control: 89.9%
Spring barley [3]; 3.00 kg/ha
  Plant height: 27.5 cm
  Plant height, % of untreated control: 83.8%
Spring barley [3]; 6.00 kg/ha
  Plant height: 26.0 cm
  Plant height, % of untreated control: 79.3%
Spring rye [4]; 0.75 kg/ha
  Plant height: 27.0 cm
  Plant height, % of untreated control: 94.7%
Spring rye [4]; 1.50 kg/ha
  Plant height: 25.5 cm
  Plant height, % of untreated control: 89.5%
Spring rye [4]; 3.00 kg/ha
  Plant height: 25.5 cm
  Plant height, % of untreated control: 89.5%
Spring wheat [5]; 0.75 kg/ha
  Plant height: 27.5 cm
  Plant height, % of untreated control: 89.3%
Spring wheat [5]; 1.50 kg/ha
  Plant height: 26.0 cm
  Plant height, % of untreated control: 84.4%
Spring wheat [5]; 3.00 kg/ha
  Plant height: 25.0 cm
  Plant height, % of untreated control: 81.2%
Spring barley [6]; 0.75 kg/ha
  Plant height: 27.5 cm
  Plant height, % of untreated control: 98.4%
Spring barley [6]; 1.50 kg/ha
  Plant height: 27.0 cm
  Plant height, % of untreated control: 97.1%
Spring barley [6]; 3.00 kg/ha
  Plant height: 27.0 cm
  Plant height, % of untreated control: 97.1%
Spring barley [7]; 3 kg/ha
  Plant height: 27.5 cm
  Plant height, % of untreated control: 85.1%
Spring barley [7]; 12 kg/ha
  Plant height: 24.5 cm
  Plant height, % of untreated control: 75.9%

## c1ccc(C2N=NC3C4CC(C5N=NC45)C23)cc1 (stereo not shown) [drawing 422]
Spring rye [4]; 0.75 kg/ha
  Plant height: 23.0 cm
  Plant height, % of untreated control: 80.7%
Spring rye [4]; 1.50 kg/ha
  Plant height: 20.5 cm
  Plant height, % of untreated control: 71.9%
Spring rye [4]; 3.00 kg/ha
  Plant height: 20.5 cm
  Plant height, % of untreated control: 71.9%

## c1ccc(C2=NOC3C4CC(C5N=NC45)C23)cc1 (stereo not shown) [drawing 391]
Spring barley [7]; 3 kg/ha
  Plant height: 24.5 cm
  Plant height, % of untreated control: 75.9%
Spring barley [7]; 12 kg/ha
  Plant height: 16.0 cm
  Plant height, % of untreated control: 49.5%

## Clc1ccc(NC2C(Cl)C3CC2C2N=NC32)cc1 (stereo not shown) [drawing 421]
Spring rye [1]; 0.75 kg/ha
  Plant height: 28.0 cm
  Plant height, % of untreated control: 86.7%
Spring rye [1]; 1.50 kg/ha
  Plant height: 27.0 cm
  Plant height, % of untreated control: 83.5%
Spring rye [1]; 3.00 kg/ha
  Plant height: 25.0 cm
  Plant height, % of untreated control: 77.4%
Spring rye [1]; 6.00 kg/ha
  Plant height: 23.0 cm
  Plant height, % of untreated control: 71.2%

## O=P(O)(O)CCCl [Ethephon, β-chloroethylphosphonic acid, reference compound]
Spring barley [8]; 1.5 kg/ha
  Plant height: 27.0 cm
  Plant height, % of untreated control: 96.4%
Spring barley [8]; 6.0 kg/ha
  Plant height: 24.5 cm
  Plant height, % of untreated control: 87.5%
Spring barley [9]; 3 kg/ha
  Plant height: 32.0 cm
  Plant height, % of untreated control: 93.3%
Spring barley [9]; 12 kg/ha
  Plant height: 27.5 cm
  Plant height, % of untreated control: 80.2%
Spring wheat [10]; 3 kg/ha
  Plant height: 29.0 cm
  Plant height, % of untreated control: 90.6%
Spring wheat [10]; 12 kg/ha
  Plant height: 25.0 cm
  Plant height, % of untreated control: 78.1%
Spring wheat [11]; 1.5 kg/ha
  Plant height: 30.0 cm
  Plant height, % of untreated control: 91.5%
Spring wheat [11]; 6.0 kg/ha
  Plant height: 25.0 cm
  Plant height, % of untreated control: 76.2%

## c1ccc(C2=NNC3C4CC(C5N=NC45)C23)cc1 (stereo not shown) [drawing 417]
Spring barley [3]; 0.75 kg/ha
  Plant height: 32.0 cm
  Plant height, % of untreated control: 97.6%
Spring barley [3]; 1.50 kg/ha
  Plant height: 28.0 cm
  Plant height, % of untreated control: 85.4%
Spring barley [3]; 3.00 kg/ha
  Plant height: 27.0 cm
  Plant height, % of untreated control: 82.3%
Spring barley [3]; 6.00 kg/ha
  Plant height: 23.0 cm
  Plant height, % of untreated control: 70.1%

## C1C2C3N=NC3C1C1OC21 (stereo not shown) [drawing 388]
Spring wheat [2]; 3 kg/ha
  Plant height: 21.5 cm
  Plant height, % of untreated control: 71.7%
Spring wheat [2]; 12 kg/ha
  Plant height: 12.5 cm
  Plant height, % of untreated control: 41.7%
